In patent publication US8273890B2 (4SC AG, priority 2007, dated 2012):

Molecular target: T1, recombinant Plk1 protein (Homo sapiens, UniProt P53350)
T1 construct: histidine tag (N); made in house; host or cells: SF9 insect cells
Assay: Plk1 kinase activity inhibition assay (33P-ATP, alpha casein substrate, flash plates)
Format: biochemical
Details: enzymatic assay, 100 nM Li-ATP, 80 minutes at 30° C.
Outline: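 IC50 derived from radioactive flash-plate counts of 33P-labelled alpha casein after 80 min at 30 °C. Reaction: 100 nM 33P-containing ATP, 50–100 ng His-tagged Plk1 (SF9-expressed), 500 ng casein per well, HEPES pH 7.5 buffer with MgCl2/MnCl2.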

T1 sequence (P53350 whole entry): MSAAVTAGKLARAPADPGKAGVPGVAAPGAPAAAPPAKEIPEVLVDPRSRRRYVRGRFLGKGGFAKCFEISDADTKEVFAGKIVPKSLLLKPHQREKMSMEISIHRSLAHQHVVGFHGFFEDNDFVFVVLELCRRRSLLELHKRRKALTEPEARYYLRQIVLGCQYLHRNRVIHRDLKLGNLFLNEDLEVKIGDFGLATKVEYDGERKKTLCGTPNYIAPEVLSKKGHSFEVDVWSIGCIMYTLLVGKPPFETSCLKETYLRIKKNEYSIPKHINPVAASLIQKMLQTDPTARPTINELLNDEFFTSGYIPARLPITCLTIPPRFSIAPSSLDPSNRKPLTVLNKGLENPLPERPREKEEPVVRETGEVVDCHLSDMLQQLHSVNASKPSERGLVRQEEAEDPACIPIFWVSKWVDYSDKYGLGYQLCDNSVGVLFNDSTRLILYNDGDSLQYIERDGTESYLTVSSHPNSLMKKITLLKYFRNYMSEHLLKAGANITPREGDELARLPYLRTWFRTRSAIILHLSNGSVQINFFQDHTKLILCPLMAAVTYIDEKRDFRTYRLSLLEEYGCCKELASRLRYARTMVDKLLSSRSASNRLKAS

IC50 | Structure (SMILES)
100 to 1000 nM | CCNCc1cc2ncn(-c3cc(O[C@H](C)c4ccccc4C(F)(F)F)c(C(N)=O)s3)c2cn1 [Example 117, 5-{6-[(ethylamino)methyl]-3H-imidazo[4,5-c]pyridin-3-yl}-3-{(1R)-1-[2-(trifluoromethyl)phenyl]ethoxy}thiophene-2-carboxamide]
< 10 nM | Cc1ccccc1C(C)Oc1cc(-n2cnc3cnc(CN4CCN(C)CC4)cc32)sc1C(N)=O (stereo not drawn) [Example 148, 3-[1-(2-methylphenyl)ethoxy]-5-{6-[(4-methylpiperazin-1-yl)methyl]-1H-imidazo[4,5-c]pyridin-1-yl}thiophene-2-carboxamide]
1000 to 10000 nM | CC(Oc1cc(-n2cnc3cc(CNC4CCN(C)CC4)ncc32)sc1C(N)=O)c1ccccc1F (stereo not drawn) [Example 156, 3-[-1-(2-fluorophenyl)ethoxy]-5-(6-{[(1-methylpiperidin-4-yl)amino]methyl}-3H-imidazo[4,5-c]pyridin-3-yl)thiophene-2-carboxamide]
100 to 1000 nM | CCC(Oc1cc(-n2cnc3cnc(CN4CCN(CCN(C)C)CC4)cc32)sc1C(N)=O)c1ccccc1Cl (stereo not drawn) [Example 151, 3-{[1-(2-chlorophenyl)propyl]oxy}-5-[6-({4-[2-(dimethylamino)ethyl]piperazin-1-yl}methyl)-1H-imidazo[4,5-c]pyridin-1-yl]thiophene-2-carboxamide]
10 to 100 nM | NC(=O)c1sc(-n2cnc3cnccc32)cc1OCc1ccccc1OC(F)(F)F [Example 33, 5-(1H-imidazo[4,5-c]pyridin-1-yl)-3-{[2-(trifluoromethoxy)benzyl]oxy}thiophene-2-carboxamide]
< 10 nM | C[C@@H](Oc1cc(-n2cnc3cnc(CN4CC(O)C4)cc32)sc1C(N)=O)c1ccccc1C(F)(F)F [Example 96, 5-{6-[(3-hydroxyazetidin-1-yl)methyl]-1H-imidazo[4,5-c]pyridin-1-yl}-3-{(1R)-1-[2-(trifluoromethyl)phenyl]ethoxy}thiophene-2-carboxamide]
10 to 100 nM | C[C@@H](Oc1cc(-n2cnc3cnc(CNC(C)(C)C)cc32)sc1C(N)=O)c1ccccc1C(F)(F)F [Example 114, 5-{6-[(tert-butylamino)methyl]-1H-imidazo[4,5-c]pyridin-1-yl}-3-{(1R)-1-[2-(trifluoromethyl)phenyl]ethoxy}thiophene-2-carboxamide]
100 to 1000 nM | CCN(CC)Cc1cc2c(cn1)ncn2-c1cc(OCc2ccccc2C(F)(F)F)c(C(N)=O)s1 [Example 6, 5-{6-[(Diethylamino)methyl]-1H-imidazo[4,5-c]pyridin-1-yl}-3-{[2-(trifluoromethyl)benzyl]oxy}thiophene-2-carboxamide]
10 to 100 nM | C[C@@H](Oc1cc(-n2cnc3cnc(CN4CCN(CC(=O)N5CCOCC5)CC4)cc32)sc1C(N)=O)c1ccccc1C(F)(F)F [Example 124, 5-(6-{[4-(2-morpholin-4-yl-2-oxoethyl)piperazin-1-yl]methyl}-1H-imidazo[4,5-c]pyridin-1-yl)-3-{(1R)-1-[2-(trifluoromethyl)phenyl]ethoxy}thiophene-2-carboxamide]
10 to 100 nM | CCNCc1cc2c(cn1)ncn2-c1cc(O[C@H](C)c2ccccc2C(F)(F)F)c(C(N)=O)s1 [Example 112, 5-{6-[(ethylamino)methyl]-1H-imidazo[4,5-c]pyridin-1-yl}-3-{(1R)-1-[2-(trifluoromethyl)phenyl]ethoxy}thiophene-2-carboxamide]
10 to 100 nM | C[C@@H](Oc1cc(-n2cnc3cnc(CN4CCN(CC(=O)N(C)C)CC4)cc32)sc1C(N)=O)c1ccccc1C(F)(F)F [Example 87, 5-[6-({4-[2-(dimethylamino)-2-oxoethyl]piperazin-1-yl}methyl)-1H-imidazo[4,5-c]pyridin-1-yl]-3-{(1R)-1-[2-(trifluoromethyl)phenyl]ethoxy}thiophene-2-carboxamide]
10 to 100 nM | CCC(Oc1cc(-n2cnc3cnc(CN4CCN(CCO)CC4)cc32)sc1C(N)=O)c1ccccc1Cl (stereo not drawn) [Example 138, 3-{[1-(2-chlorophenyl)propyl]oxy}-5-(6-{[4-(2-hydroxyethyl)piperazin-1-yl]methyl}-1H-imidazo[4,5-c]pyridin-1-yl)thiophene-2-carboxamide]
1000 to 10000 nM | CC(Oc1cc(-n2cnc3cc(CN4CCOCC4)ncc32)sc1C(N)=O)c1ccccc1F (stereo not drawn) [Example 158, 3-[-1-(2-fluorophenyl)ethoxy]-5-[6-(morpholin-4-ylmethyl)-3H-imidazo[4,5-c]pyridin-3-yl]thiophene-2-carboxamide]
< 10 nM | CC(Oc1cc(-n2cnc3ccncc32)sc1C(N)=O)c1ccccc1Cl (stereo not drawn) [Example 12, 3-[1-(2-Chlorophenyl)ethoxy]-5-(3H-imidazo[4,5-c]pyridin-3-yl)thio-phene-2-carboxamide]
100 to 1000 nM | NC(=O)c1sc(-n2cnc3cc(CO)ncc32)cc1OCc1ccccc1C(F)(F)F [Example 10, 5-[6-(Hydroxymethyl)-3H-imidazo[4,5-c]pyridin-3-yl]-3-{[2-(trifluoromethyl)benzyl]oxy}thiophene-2-carboxamide]
10 to 100 nM | NC(=O)c1sc(-n2cnc3ccncc32)cc1OCc1ccccc1OC(F)(F)F [Example 29, 5-(3H-imidazo[4,5-c]pyridin-3-yl)-3-{[2-(trifluoromethoxy)benzyl]oxy}thiophene-2-carboxamide]
< 10 nM | CC(c1ccccc1)N1CCN(Cc2cc3c(cn2)ncn3-c2cc(O[C@H](C)c3ccccc3C(F)(F)F)c(C(N)=O)s2)CC1 (stereo partly drawn) [Example 119, 5-(6-{[4-(1-phenylethyl)piperazin-1-yl]methyl}-1H-imidazo[4,5-c]pyridin-1-yl)-3-{(1R)-1-[2-(trifluoromethyl)phenyl]ethoxy}thiophene-2-carboxamide]
< 10 nM | C[C@@H](Oc1cc(-n2cnc3cnc(CN4CCN(C)CC4CO)cc32)sc1C(N)=O)c1ccccc1C(F)(F)F (stereo partly drawn) [Example 126, 5-(6-{[2-(hydroxymethyl)-4-methylpiperazin-1-yl]methyl}-1H-imidazo[4,5-c]pyridin-1-yl)-3-{(1R)-1-[2-(trifluoromethyl)phenyl]ethoxy}thiophene-2-carboxamide]
100 to 1000 nM | NC(=O)c1sc(-n2cnc3ccncc32)cc1OCc1ccccc1C(F)(F)F [Example 3, 5-(3H-Imidazo[4,5-c]pyridin-3-yl)-3-{[2-(trifluoromethyl)benzyl]oxy}thio-phene-2-carboxamide]
10 to 100 nM | CCN1CCN(Cc2cc3c(cn2)ncn3-c2cc(OC(C)c3ccccc3C)c(C(N)=O)s2)CC1 (stereo not drawn) [Example 150, 5-{6-[(4-ethylpiperazin-1-yl)methyl]-1H-imidazo[4,5-c]pyridin-1-yl}-3-[1-(2-methylphenyl)ethoxy]thiophene-2-carboxamide]
10 to 100 nM | NC(=O)c1sc(-n2cnc3cnc(CO)cc32)cc1OCc1ccccc1C(F)(F)F [Example 9, 5-[6-(Hydroxymethyl)-1H-imidazo[4,5-c]pyridin-1-yl]-3-{[2-(trifluoromethyl)benzyl]oxy}thiophene-2-carboxamide]
< 10 nM | C[C@@H](Oc1cc(-n2cnc3cnc(CN4CCC(O)C4)cc32)sc1C(N)=O)c1ccccc1C(F)(F)F (stereo partly drawn) [Example 94, 5-{6-[(3-hydroxypyrrolidin-1-yl)methyl]-1H-imidazo[4,5-c]pyridin-1-yl}-3-{(1R)-1-[2-(trifluoromethyl)phenyl]ethoxy}thiophene-2-carboxamide]
< 10 nM | C[C@@H](Oc1cc(-n2cnc3cnc(CN4CCN(C)CC4)cc32)sc1C(N)=O)c1ccccc1Cl [Example 100, 3-[(1R)-1-(2-chlorophenyl)ethoxy]-5-{6-[(4-methylpiperazin-1-yl)methyl]-1H-imidazo[4,5-c]pyridin-1-yl}thiophene-2-carboxamide]
< 10 nM | CC(Oc1cc(-n2cnc3cnc(CN4CCN(C)CC4)cc32)sc1C(N)=O)c1ccccc1OC(F)F (stereo not drawn) [Example 99, 3-{1-[2-(difluoromethoxy)phenyl]ethoxy}-5-{6-[(4-methylpiperazin-1-yl)methyl]-1H-imidazo[4,5-c]pyridin-1-yl}thiophene-2-carboxamide]
10 to 100 nM | COc1cc2c(cn1)ncn2-c1cc(OCc2ccccc2C(F)(F)F)c(C(N)=O)s1 [Example 16, 5-(6-Methoxy-1H-imidazo[4,5-c]pyridin-1-yl)-3-{[2-(trifluoromethyl)benzyl]oxy}thiophene-2-carboxamide]
< 10 nM | C[C@@H](Oc1cc(-n2cnc3cnc(CN4CCN(CCO)CC4)cc32)sc1C(N)=O)c1ccccc1C(F)(F)F [Example 61, 5-(6-{[4-(2-hydroxyethyl)piperazin-1-yl]methyl}-1H-imidazo[4,5-c]pyridin-1-yl)-3-{(1R)-1-[2-(trifluoromethyl)phenyl]ethoxy}thiophene-2-carboxamide]
< 10 nM | C[C@@H](Oc1cc(-n2cnc3cnc(CN4CCCN(C)CC4)cc32)sc1C(N)=O)c1ccccc1C(F)(F)F [Example 164, 5-{6-[(4-methyl-1,4-diazepan-1-yl)methyl]-1H-imidazo[4,5-c]pyridin-1-yl}-3-{(1R)-1-[2-(trifluoromethyl)phenyl]ethoxy}thiophene-2-carboxamide]
10 to 100 nM | C[C@@H](Oc1cc(-n2cnc3cnc(CN4CCN(CCC#N)CC4)cc32)sc1C(N)=O)c1ccccc1C(F)(F)F [Example 82, 5-(6-{[4-(2-cyanoethyl)piperazin-1-yl]methyl}-1H-imidazo[4,5-c]pyridin-1-yl)-3-{(1R)-1-[2-(trifluoromethyl)phenyl]ethoxy}thiophene-2-carboxamide]
10 to 100 nM | CC(=O)N1CCCN(Cc2cc3c(cn2)ncn3-c2cc(O[C@H](C)c3ccccc3C(F)(F)F)c(C(N)=O)s2)CC1 [Example 81, 5-{6-[(4-acetyl-1,4-diazepan-1-yl)methyl]-1H-imidazo[4,5-c]pyridin-1-yl}-3-{(1R)-1-[2-(trifluoromethyl)phenyl]ethoxy}thiophene-2-carboxamide]
10 to 100 nM | NC(=O)c1sc(-n2cnc3ccncc32)cc1OCc1ccccc1F [Example 31, 3-[(2-fluorobenzyl)oxy]-5-(3H-imidazo[4,5-c]pyridin-3-yl)thiophene-2-carboxamide]
